Results as given in PMC7658267, “Effects of CYP46A1 Inhibition on Long-Term-Depression in Hippocampal Slices ex vivo and 24S-Hydroxycholesterol Levels in Mice in vivo” (Frontiers in Molecular Neuroscience, 2020).
Like-named read-outs stand apart in the source and are kept apart here.

How the values were obtained:
Assay in all cases: biochemical
[1] = target: T1, Human 5-HT1A (Homo sapiens, UniProt P08908); set-up: CEREP off-target binding panel, per cent inhibition at 10 uM, n = 2
T1 construct: gene HTR1A
T1 sequence (P08908 whole entry): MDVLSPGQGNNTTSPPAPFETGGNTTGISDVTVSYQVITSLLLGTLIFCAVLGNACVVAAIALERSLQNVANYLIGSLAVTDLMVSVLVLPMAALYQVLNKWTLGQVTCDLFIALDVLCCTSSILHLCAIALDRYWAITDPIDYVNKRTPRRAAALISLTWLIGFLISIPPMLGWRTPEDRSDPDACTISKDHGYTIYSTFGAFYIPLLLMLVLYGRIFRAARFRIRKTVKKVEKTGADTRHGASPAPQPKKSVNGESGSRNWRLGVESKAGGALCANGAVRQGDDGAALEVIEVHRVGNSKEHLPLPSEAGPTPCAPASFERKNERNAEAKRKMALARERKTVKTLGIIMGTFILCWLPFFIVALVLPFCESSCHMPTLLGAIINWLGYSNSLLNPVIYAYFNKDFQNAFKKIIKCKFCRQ

[2] = target: T2, Human 5-HT2B (Homo sapiens, UniProt P41595); set-up: CEREP off-target binding panel, per cent inhibition at 10 uM, n = 2
T2 construct: gene HTR2B

[3] = target: T3, Human 5-HT5A (Homo sapiens, UniProt P47898); set-up: CEREP off-target binding panel, per cent inhibition at 10 uM, n = 2
T3 construct: gene HTR5A
T3 sequence (P47898 whole entry): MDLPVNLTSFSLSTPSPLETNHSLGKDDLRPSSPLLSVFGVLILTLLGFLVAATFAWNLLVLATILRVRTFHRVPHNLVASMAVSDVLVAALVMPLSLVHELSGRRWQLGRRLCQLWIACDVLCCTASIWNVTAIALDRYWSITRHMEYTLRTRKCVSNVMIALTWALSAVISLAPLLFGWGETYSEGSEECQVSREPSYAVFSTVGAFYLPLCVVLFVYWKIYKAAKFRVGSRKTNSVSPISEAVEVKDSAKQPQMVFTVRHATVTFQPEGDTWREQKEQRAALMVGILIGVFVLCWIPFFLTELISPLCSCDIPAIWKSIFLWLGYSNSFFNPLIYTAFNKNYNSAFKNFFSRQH

[4] = target: T4, Human A2A (Homo sapiens, UniProt P29274); set-up: CEREP off-target binding panel, per cent inhibition at 10 uM, n = 2
T4 construct: gene ADORA2A
T4 sequence (P29274 whole entry): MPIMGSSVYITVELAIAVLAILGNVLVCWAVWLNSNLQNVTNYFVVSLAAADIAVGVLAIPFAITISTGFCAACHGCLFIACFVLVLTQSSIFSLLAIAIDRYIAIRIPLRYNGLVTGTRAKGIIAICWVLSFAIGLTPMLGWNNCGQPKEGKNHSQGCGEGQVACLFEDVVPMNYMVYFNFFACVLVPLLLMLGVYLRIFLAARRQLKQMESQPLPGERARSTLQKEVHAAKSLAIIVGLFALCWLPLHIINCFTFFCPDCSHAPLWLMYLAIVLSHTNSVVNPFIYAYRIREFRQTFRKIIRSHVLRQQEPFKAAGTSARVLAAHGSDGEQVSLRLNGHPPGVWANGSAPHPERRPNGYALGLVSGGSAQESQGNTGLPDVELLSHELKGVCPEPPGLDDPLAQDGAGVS

[5] = target: Human CCR1 (Homo sapiens, UniProt P32246); set-up: CEREP off-target binding panel, per cent inhibition at 10 uM, n = 2
[6] = target: T5, Human D2s (Homo sapiens, UniProt P14416); set-up: CEREP off-target binding panel, per cent inhibition at 10 uM, n = 2
T5 construct: gene DRD2; D2s

[7] = target: T6, Human H2 (Homo sapiens, UniProt P25021); set-up: CEREP off-target binding panel, per cent inhibition at 10 uM, n = 2
T6 construct: gene HRH2
T6 sequence (P25021 whole entry): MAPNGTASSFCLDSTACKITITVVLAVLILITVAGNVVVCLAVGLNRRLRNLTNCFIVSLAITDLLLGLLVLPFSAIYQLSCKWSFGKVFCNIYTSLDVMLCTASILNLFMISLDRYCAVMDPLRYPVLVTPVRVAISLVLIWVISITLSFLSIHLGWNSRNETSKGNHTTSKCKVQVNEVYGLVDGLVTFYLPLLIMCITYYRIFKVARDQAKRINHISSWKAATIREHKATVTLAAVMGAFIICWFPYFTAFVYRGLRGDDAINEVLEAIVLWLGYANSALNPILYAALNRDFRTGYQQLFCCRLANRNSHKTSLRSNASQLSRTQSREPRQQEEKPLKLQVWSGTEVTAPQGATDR

[8] = target: T7, Human KOP (Homo sapiens, UniProt P41145); set-up: CEREP off-target binding panel, per cent inhibition at 10 uM, n = 2
T7 construct: gene OPRK1

[9] = target: T8, Human M3 (Homo sapiens, UniProt P20309); set-up: CEREP off-target binding panel, per cent inhibition at 10 uM, n = 2
T8 construct: gene CHRM3

[10] = target: T9, Human MC4 (Homo sapiens, UniProt P32245); set-up: CEREP off-target binding panel, per cent inhibition at 10 uM, n = 2
T9 construct: gene MC4R
T9 sequence (P32245 whole entry): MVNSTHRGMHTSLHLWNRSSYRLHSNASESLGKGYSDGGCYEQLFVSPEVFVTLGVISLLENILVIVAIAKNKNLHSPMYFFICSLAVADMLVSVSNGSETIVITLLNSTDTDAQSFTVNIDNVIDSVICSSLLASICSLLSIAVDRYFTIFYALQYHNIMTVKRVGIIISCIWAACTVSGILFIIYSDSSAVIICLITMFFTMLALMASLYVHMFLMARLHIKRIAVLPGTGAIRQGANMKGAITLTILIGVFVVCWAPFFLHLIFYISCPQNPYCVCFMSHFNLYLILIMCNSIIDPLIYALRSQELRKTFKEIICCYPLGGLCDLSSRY

[11] = target: T10, Human MOP (Homo sapiens, UniProt P35372); set-up: CEREP off-target binding panel, per cent inhibition at 10 uM, n = 2
T10 construct: gene OPRM1
T10 sequence (P35372 whole entry): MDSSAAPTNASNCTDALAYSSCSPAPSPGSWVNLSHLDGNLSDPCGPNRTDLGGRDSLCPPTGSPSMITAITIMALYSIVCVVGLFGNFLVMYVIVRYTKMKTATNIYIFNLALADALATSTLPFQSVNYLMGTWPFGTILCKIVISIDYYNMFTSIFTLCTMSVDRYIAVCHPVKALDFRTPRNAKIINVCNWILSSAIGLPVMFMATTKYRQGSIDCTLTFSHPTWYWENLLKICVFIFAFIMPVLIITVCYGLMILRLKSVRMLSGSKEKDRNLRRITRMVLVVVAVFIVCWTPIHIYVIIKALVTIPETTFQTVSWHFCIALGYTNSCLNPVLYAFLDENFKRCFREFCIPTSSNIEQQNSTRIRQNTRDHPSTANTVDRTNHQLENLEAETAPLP

[12] = target: T11, Human PR (Homo sapiens, UniProt P06401); set-up: CEREP off-target binding panel, per cent inhibition at 10 uM, n = 2
T11 construct: gene PGR

[13] = target: T12, Human V1a (Homo sapiens, UniProt P37288); set-up: CEREP off-target binding panel, per cent inhibition at 10 uM, n = 2
T12 construct: gene AVPR1A

[14] = target: T13, Human VPAC1 (Homo sapiens, UniProt P32241); set-up: CEREP off-target binding panel, per cent inhibition at 10 uM, n = 2
T13 construct: gene VIPR1
T13 sequence (P32241 whole entry): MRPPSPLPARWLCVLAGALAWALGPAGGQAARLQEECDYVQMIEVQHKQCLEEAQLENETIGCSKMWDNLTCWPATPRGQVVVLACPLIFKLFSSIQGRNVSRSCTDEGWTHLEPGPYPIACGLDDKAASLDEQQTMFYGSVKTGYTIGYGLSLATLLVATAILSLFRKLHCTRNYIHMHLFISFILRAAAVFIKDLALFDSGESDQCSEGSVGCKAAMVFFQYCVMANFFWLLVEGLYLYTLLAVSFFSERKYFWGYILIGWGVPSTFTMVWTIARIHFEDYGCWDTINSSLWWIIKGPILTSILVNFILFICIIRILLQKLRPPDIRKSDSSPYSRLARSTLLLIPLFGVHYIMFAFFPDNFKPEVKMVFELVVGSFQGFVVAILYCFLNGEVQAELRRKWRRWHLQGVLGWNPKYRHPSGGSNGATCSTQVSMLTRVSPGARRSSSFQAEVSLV

[15] = target: T14, Human Y1 (Homo sapiens, UniProt P25929); set-up: CEREP off-target binding panel, per cent inhibition at 10 uM, n = 2
T14 construct: gene NPY1R
T14 sequence (P25929 whole entry): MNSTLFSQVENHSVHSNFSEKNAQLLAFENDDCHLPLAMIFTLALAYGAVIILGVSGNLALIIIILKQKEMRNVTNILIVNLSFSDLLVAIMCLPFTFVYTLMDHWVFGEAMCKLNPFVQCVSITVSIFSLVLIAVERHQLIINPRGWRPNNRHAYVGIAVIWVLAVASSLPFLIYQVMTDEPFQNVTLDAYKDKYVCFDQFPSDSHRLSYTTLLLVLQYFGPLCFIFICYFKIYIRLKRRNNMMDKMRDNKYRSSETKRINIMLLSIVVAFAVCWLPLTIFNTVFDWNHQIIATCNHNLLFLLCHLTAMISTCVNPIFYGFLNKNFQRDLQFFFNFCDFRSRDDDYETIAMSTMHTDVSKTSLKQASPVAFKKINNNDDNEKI

[16] = target: T15, Human Y2 (Homo sapiens, UniProt P49146); set-up: CEREP off-target binding panel, per cent inhibition at 10 uM, n = 2
T15 construct: gene NPY2R

[17] = target: T16, Human β2 (Homo sapiens, UniProt P07550); set-up: CEREP off-target binding panel, per cent inhibition at 10 uM, n = 2
T16 construct: gene ADRB2

[18] = target: T17, Human Eta (Homo sapiens, UniProt P25101); set-up: CEREP off-target binding panel, per cent inhibition at 10 uM, n = 2
T17 construct: gene EDNRA

[19] = target: T18, Human 5-HT transporter (Homo sapiens, UniProt P31645); set-up: CEREP off-target binding panel, per cent inhibition at 10 uM, n = 2
T18 construct: gene SLC6A4
T18 sequence (P31645 whole entry): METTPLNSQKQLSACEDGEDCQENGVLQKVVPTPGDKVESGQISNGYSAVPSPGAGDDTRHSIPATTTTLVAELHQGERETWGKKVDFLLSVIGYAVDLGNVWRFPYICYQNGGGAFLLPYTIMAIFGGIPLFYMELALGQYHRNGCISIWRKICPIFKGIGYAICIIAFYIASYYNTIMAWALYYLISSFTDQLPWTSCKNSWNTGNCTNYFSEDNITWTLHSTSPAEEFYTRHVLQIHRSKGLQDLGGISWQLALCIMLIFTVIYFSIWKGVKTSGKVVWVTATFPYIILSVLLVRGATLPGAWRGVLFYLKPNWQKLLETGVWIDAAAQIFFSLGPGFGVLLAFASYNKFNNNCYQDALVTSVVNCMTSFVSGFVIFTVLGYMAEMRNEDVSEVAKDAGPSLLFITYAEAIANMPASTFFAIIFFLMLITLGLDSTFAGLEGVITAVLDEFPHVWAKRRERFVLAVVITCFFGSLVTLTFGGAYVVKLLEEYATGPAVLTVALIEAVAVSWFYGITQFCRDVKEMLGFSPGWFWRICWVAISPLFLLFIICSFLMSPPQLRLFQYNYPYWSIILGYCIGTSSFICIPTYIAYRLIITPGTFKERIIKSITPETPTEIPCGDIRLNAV

[20] = target: T19, Human norepinephrine transporter (Homo sapiens, UniProt P23975); set-up: CEREP off-target binding panel, per cent inhibition at 10 uM, n = 2
T19 construct: gene SLC6A2

[21] = target: T20, Human B2 (Homo sapiens, UniProt P30411); set-up: CEREP off-target binding panel, per cent inhibition at 10 uM, n = 2
T20 construct: gene BDKRB2

[22] = target: T21, Human dopamine transporter (Homo sapiens, UniProt Q01959); set-up: CEREP off-target binding panel, per cent inhibition at 10 uM, n = 2
T21 construct: gene SLC6A3
T21 sequence (Q01959 whole entry): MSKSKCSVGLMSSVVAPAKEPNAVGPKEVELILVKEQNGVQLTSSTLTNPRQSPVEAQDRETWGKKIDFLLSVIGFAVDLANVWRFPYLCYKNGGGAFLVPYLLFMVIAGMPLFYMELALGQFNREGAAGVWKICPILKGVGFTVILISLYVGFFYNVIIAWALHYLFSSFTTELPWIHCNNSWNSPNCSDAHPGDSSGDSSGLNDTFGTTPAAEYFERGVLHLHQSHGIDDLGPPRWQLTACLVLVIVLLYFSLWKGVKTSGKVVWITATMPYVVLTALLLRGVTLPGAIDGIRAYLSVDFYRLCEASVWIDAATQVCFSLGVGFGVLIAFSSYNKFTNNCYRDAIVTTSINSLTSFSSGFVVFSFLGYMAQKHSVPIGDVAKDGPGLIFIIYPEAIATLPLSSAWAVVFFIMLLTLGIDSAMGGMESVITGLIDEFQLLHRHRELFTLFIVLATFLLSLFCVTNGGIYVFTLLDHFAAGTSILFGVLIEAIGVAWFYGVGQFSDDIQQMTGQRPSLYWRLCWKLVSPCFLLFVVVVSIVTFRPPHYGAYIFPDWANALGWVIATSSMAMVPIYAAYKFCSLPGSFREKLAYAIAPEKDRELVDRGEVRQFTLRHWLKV

[23] = target: CYP2B6 (Homo sapiens, UniProt P20813); set-up: CYP off-target inhibition panel
Text: These examples have been of interest as tool compounds in commercial development (indicated by patent numbers in Figure 3). […] Initially, [compound left out] was utilized as substrate in this reaction owing to its improved solubility over cholesterol, enabling better run to run reproducibility ([Mast et al., 2003]).

[24] = target: CYP2C9 (Homo sapiens, UniProt P11712); set-up: CYP off-target inhibition panel
[25] = target: CYP2C19 (Homo sapiens, UniProt P33261); set-up: CYP off-target inhibition panel
CYP2C19, sequence (P33261 whole entry): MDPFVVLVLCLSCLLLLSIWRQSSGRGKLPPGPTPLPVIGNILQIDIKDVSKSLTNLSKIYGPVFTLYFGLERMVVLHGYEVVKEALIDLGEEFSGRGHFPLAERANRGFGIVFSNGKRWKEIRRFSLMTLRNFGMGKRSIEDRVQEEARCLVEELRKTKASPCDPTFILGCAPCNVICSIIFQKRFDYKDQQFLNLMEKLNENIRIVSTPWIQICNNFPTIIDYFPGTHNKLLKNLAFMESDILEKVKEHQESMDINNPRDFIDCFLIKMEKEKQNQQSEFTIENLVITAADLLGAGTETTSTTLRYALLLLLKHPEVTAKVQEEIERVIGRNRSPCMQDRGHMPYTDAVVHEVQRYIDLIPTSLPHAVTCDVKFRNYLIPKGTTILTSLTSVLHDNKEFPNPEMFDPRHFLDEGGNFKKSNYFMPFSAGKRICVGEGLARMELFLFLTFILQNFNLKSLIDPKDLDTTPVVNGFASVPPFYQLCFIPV

Structure (SMILES)	inhibition at 10 µM [1]	inhibition at 10 µM [2]	inhibition at 10 µM [3]	inhibition at 10 µM [4]	inhibition at 10 µM [5]	inhibition at 10 µM [6]	inhibition at 10 µM [7]	inhibition at 10 µM [8]	inhibition at 10 µM [9]	inhibition at 10 µM [10]	inhibition at 10 µM [11]	inhibition at 10 µM [12]	inhibition at 10 µM [13]	inhibition at 10 µM [14]	inhibition at 10 µM [15]	inhibition at 10 µM [16]	inhibition at 10 µM [17]	inhibition at 10 µM [18]	inhibition at 10 µM [19]	inhibition at 10 µM [20]	also measured
O=C(c1cnc2c(-c3cnco3)cc(C(F)(F)F)cn12)N1C2CCC1COC2 [compound 1, (3-oxa-8-azabicyclo[3.2.1]octan-8-yl)(8-(oxazol-5-yl)-6-(trifluoromethyl)imidazo[1,2-a]pyridin-3-yl)methanone]	12.4%	-2.8%	-12.5%	1.1%	2.6%	-15.2%	-6.2%	8%	-9.1%	4.5%	-0.7%	2%	-7.4%	5.5%	-2.9%	-3.7%	-8.1%	-25.8%	1.2%	-14.5%	inhibition at 10 µM [21]: 6.9%; inhibition at 10 µM [22]: 2.1%; IC50 [23]: > 50 µM; IC50 [24]: > 50 µM; IC50 [25]: > 50 µM
O=C(c1cccnc1-c1ccncn1)N1CCC(O)(Cc2ccc(F)cc2)CC1 [compound 2, (4-(4-fluorobenzyl)-4-hydroxypiperidin-1-yl)(2-(pyrimidin-4-yl)pyridin-3-yl)methanone]	10.8%	-2.4%	9.6%	-2.6%	-1.7%	-15.4%	-5.4%	-5.2%	7.3%	9.8%	2.5%	-4.7%	2.8%	-1.9%	-16.3%	6.8%	-2%	-35.5%	0.1%	-3.6%	inhibition at 10 µM [21]: 8.4%; inhibition at 10 µM [22]: 13.8%; IC50 ([23]; read-out: compound 2): > 50 µM; IC50 ([24]; read-out: compound 2): > 50 µM; IC50 ([25]; read-out: compound 2): > 50 µM
